Legend:
IRAK-M = IRAK-M protein stability, cycloheximide chase; format: cell-based; conditions: PIN1-deficient MEFs (text PIN1 KD, Fig. 4g legend PIN1 KO) co-expressing IRAK-M with PIN1 mutant
Method: Fig. 4 PIN1 increases IRAK-M protein stabilization. a After IRAK-M and GFP were coexpressed in WT and PIN1 KO MEFs for 24 h, cells were split equally into 5 dishes. […] The data were analyzed by a Student’s two-tailed t test and the values are reported as mean ± standard errors of the means (SEM). *- statistical significance (P < 0.05), **- significance (P < 0.01)

[1] = test system: Il6, Csf3, Cxcl2 and Ccl5 expression in DC2.4 cells; assay: qRT-PCR of Il6, Csf3, Cxcl2 and Ccl5 in DC2.4 cells; format: cell-based, C57BL/6; conditions: for effect of ATRA on target gene expression: DC2.4, IL-33
Method: Also as indicated, some cells were pretreated for 3 days with 5 μM or 10 μM of ATRA before IL-33 induction. e Relative gene expression of Il6, Csf3, Cxcl2 and Ccl5 in the different samples as in d normalized to actin. f IRAK-M was stably expressed in pLKO or TET on shPin1 expressing cells, followed by induction with IL-33, before western blot to examine protein expression of IRAK-M, PIN1 and tubulin as well as g qRT-PCR to determine the relative gene expression for Il6, Csf3, Cxcl2 and Ccl5 in the different samples.
SYBR Green PCR Master Mix (Applied Biosystems, Foster City, CA) was used for two-step real-time RT-PCR analysis on an Applied Biosystems StepOnePlus Real Time PCR instrument. […] Expression value of the targeted gene in a given sample was normalized to the corresponding expression of Actin. The 2^–ΔΔCt method was used to calculate relative expression of the targeted genes.

[2] = test system: naive CD4^+ cells co-cultured with BMDCs; assay: BMDC / naive CD4+ T cell co-culture TH2 polarization, IL-5 and IL-13 secretion; format: cell-based, C57 B6 mice; conditions: ATRA 5 µM, two days prior to and during co-culture, IL-33 50 ng/ml
Method: Supplementary Figure 7. IRAK-M KO or Pin1 KO derived bone marrow dendritic cells attenuates Naïve TH2 cell differentiation upon IL-33 induction in co culture experiment. Naïve CD4+ T cells isolated from C57 B6 mice were cultured with or without IL-33 (50ng/ml) and BMDCs isolated from WT, IRAK-M KO (a) or Pin1 KO mice (b) in a 1:5 ratio for 5 days with no antigen being added. In some cases as indicated 5 µM of ATRA was added to the medium two days prior to T cell co culturing and during the experiment. Supernatants were analyzed for cytokines on day 5. The data were analyzed by a Student's two-tailed t test and the values are reported as mean ± standard errors of the means (SEM). *- statistical significance (P<0.05), **- significance (P<0.01).

PIN1 = PIN1 expression in DC2.4 cells; format: cell-based, C57BL/6; conditions: ATRA 5 or 10 μM, 3 days pretreatment, before IL-33, DC2.4

Compound | effect on IRAK-M half-life (IRAK-M) | target gene expression (Il6, Csf3, Cxcl2, Ccl5) ([1]; ATRA, even at 5 µM, IRAK-M stably expressing DC2.4 cells, IL-33) | effect of ATRA on target gene expression ([1]; IRAK-M mutants S110E and P111A) | effect of ATRA on target gene expression ([1]; P111A mutant, 10 µM ATRA) | effect of ATRA on target gene expression ([1]; S110E mutant, 10 µM ATRA) | IL-33-induced IL-5 and IL-13 secretion, inhibition by ATRA [2] | PIN1 expression (PIN1)
K63A: PIN1 PPIase domain mutant K63A (catalytically inactive) | neither binding nor isomerizing mutants had any effect | – | – | – | – | – | –
CC1=C(/C=C/C(C)=C/C=C/C(C)=C/C(=O)O)C(C)(C)CCC1 [ATRA, all-trans retinoic acid] | – | inhibited target gene expression | highly attenuated | completely abolished | some reduction in gene expression still persisted | significantly attenuated | reduced PIN1 expression
W34A: PIN1 WW domain mutant W34A (binding defective) | neither binding nor isomerizing mutants had any effect | – | – | – | – | – | –
